Literature values in patent publication US8481483B2, “Cyclosporin analogues” (priority 2009, dated 2013).

Assays:
[1] = system: hepatitis C virus replication; settings: Antiviral Research 65(3):A41 (2005)
[2] = target: cyclophilin A (Homo sapiens, UniProt P62937)
Chain of cyclophilin A (P62937 whole entry, species assumed): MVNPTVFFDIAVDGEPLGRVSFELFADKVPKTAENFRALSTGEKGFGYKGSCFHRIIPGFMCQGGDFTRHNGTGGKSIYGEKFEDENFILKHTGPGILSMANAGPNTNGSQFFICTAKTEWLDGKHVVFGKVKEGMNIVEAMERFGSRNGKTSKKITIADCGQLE

SMILES: C/C=C/C[C@@H](C)[C@@H](O)[C@H]1C(=O)N[C@@H](CC)C(=O)N(C)[C@H](C)C(=O)N(CC)[C@@H](C(C)C)C(=O)N[C@@H](C(C)C)C(=O)N(C)[C@@H](CC(C)C)C(=O)N[C@@H](C)C(=O)N[C@H](C)C(=O)N(C)[C@@H](CC(C)C)C(=O)N(C)[C@@H](CC(C)C)C(=O)N(C)[C@@H](C(C)C)C(=O)N1C [DEBIO-025]
- inhibition of hepatitis C virus replication [1]: potent and selective inhibition
- binding affinity for cyclophilin A [2]: potent binding affinity
